Data on four molecules can be found in publication PMC7226045, “Ensartinib (X-396) Effectively Modulates Pharmacokinetic Resistance Mediated by ABCB1 and ABCG2 Drug Efflux Transporters and CYP3A4 Biotransformation Enzyme” (Cancers, 2020).

The term IC50 denotes the concentration that inhibits the measured activity by half. As a reminder, the viability is the share of living cells, or the viability signal relative to a control.

Read-outs that look alike come from different tables or passages of the source.

The test system of one data set is MDCKII-parent cells. Briefly: MTT proliferation / drug combination assay, MDCKII-parent. The conditions noted are these: Canis lupus familiaris, 48 h. It counts as cell-based, canine. The procedure:
(§1) MTT proliferation assay was performed as described previously.

The next data set relates to MDCKII-ABCB1 cells. Briefly: MTT proliferation / drug combination assay, MDCKII-ABCB1. The conditions noted are these: Canis lupus familiaris, 48 h. The procedure: MTT proliferation assay was performed as described previously. Cells were seeded on a 96-well culture plate at densities (in units of cells/well) of 1.3 × 10^4 for MDCKII-par, MDCKII-ABCB1, MDCKII-ABCG2, and MDCKII-ABCC1; 1.2 × 10^4 for A431-par, A431-ABCB1, A431-ABCG2 and A431-ABCC1; 1.2 × 10^4 for NCI-H1299; 2.0 × 10^4 for Caco-2; 5.0 × 10^4 for LS174T; and 6.0 × 10^4 for HepG2-CYP3A4 and HepG2-EV. After seeding, the cells were cultured for 24 h, then the media was removed and the cells were treated with serial dilutions of a drug or drug combination for 48 h. Vehicles containing media and 40% DMSO in media served as 100% and 0% viability controls, respectively. Upon completion of the 48 h period, the cells were washed once with 1× PBS, the media was replaced with an MTT solution in Opti-MEM (1 mg/mL), and the cells were incubated under standard conditions for 60 min. MTT solution was carefully removed and the resulting formazan crystals were immediately solubilized in DMSO. The cells were then shaken gently for 10 min, after which absorbance of their lysate was measured at 570 nm and 690 nm using a microplate reader (Infinite M200, Tecan, Salzburg, Austria); background values obtained at 690 nm were subtracted from the measurements obtained at 570 nm. This method was used to assess the effect of ABC transporters on sensitivity to ensartinib, in drug combination assays, and to identify drug concentrations appropriate for use in induction studies.
(§2) Experiments focusing on the modulation of ABC transporter-mediated resistance were performed as described previously. The parent MDCKII and HL60 cells and their ABCB1-, ABCG2-, and ABCC1-overexpressing counterparts were seeded at the densities specified above onto 96-well culture plates and cultured for 24 h. The medium was subsequently replaced with serial dilutions of ensartinib alone or with various concentrations of a model MDR-susceptible cytostatic agent (daunorubicin or mitoxantrone) with or without 10 µM ensartinib. After 48 h incubation, the cells’ viability was determined as described above. In addition to performing IC50-shift analyses, the viability measurements were converted to FA (fraction of cells affected) values and the effects of drug combinations were quantified using the Chou-Talalay combination index (CI) method as implemented in CompuSyn 3.0.1 (ComboSyn Inc., Paramus, NJ, USA). The effects of concomitantly administered drugs were classified as synergistic (CI < 0.9), additive (0.9 < CI < 1.1), or antagonistic (CI > 1.1) based on the computed CI values.

The test system of another data set is HL60-parent cells. Briefly: XTT proliferation / drug combination assay, HL60-parent. Type of data set: cell-based, human. As to conditions: Homo sapiens, 48 h. Background: Tetrazolium assays rely on reduction of a dye to a coloured formazan, in cell work by metabolically active cells.
The next data set has as its system HL60-ABCB1 cells. Briefly: XTT proliferation / drug combination assay, HL60-ABCB1. The conditions noted are these: Homo sapiens, 48 h. The method, then: (§3) The MTT method is not readily adapted for use with suspension cell cultures, therefore the XTT assay was used to assess the proliferation of HL60 cells. Briefly, HL60-par, HL60-ABCB1, HL60-ABCG2, and HL60-ABCC1 cells were seeded at 2 × 10^4 cells/well in 96-well culture plates. Immediately after seeding, dilutions of the tested drugs or drug combinations were added to the cells. The plates were then incubated under standard conditions (37 °C, 5% CO2) for 48 h, after which XTT solution in PBS (1 mg/mL) and phenazine methosulfate (7.50 µg/mL) were added to the cells and the plates were incubated for another 5 h. Finally, the cells’ absorbance was measured at 450 nm using a microplate reader (Infinite M200, Tecan, Salzburg, Austria). This method was used to assess the effect of ABC transporters on sensitivity to ensartinib and in drug combination assays.
as §2

Another data set relates to HepG2-CYP3A4 cells. Briefly: Docetaxel combination assay (MTT), HepG2-CYP3A4. It counts as cell-based, human. As to conditions: 1 µM docetaxel. The method, then: as §1
(§4) Cell viability was measured after a 48 h incubation using the MTT method as described above. […] Sensitization effects of < 0%, 0%, and >0% indicate antagonism, additivity, and synergism, respectively.

The subject of the next data set is HepG2-EV cells. Briefly: Docetaxel combination assay (MTT), HepG2-EV. Type of data set: cell-based, human. The conditions noted are these: 1 µM docetaxel, <0% antagonism, =0% additivity, >0% synergism. The procedure: as §1, §4
The subject of another data set is MDCKII-ABCG2 cells. Briefly: MTT proliferation / drug combination assay, MDCKII-ABCG2. The conditions noted are these: Canis lupus familiaris, cytostatic alone or with 10 µM ensartinib, 48 h. Type of data set: cell-based, canine. The method, then:
as §1

Another data set relates to HL60-ABCG2 cells. Briefly: XTT proliferation / drug combination assay, HL60-ABCG2. Type of data set: cell-based, human. The conditions noted are these: Homo sapiens, cytostatic alone or with 10 µM ensartinib, 48 h. The method, then:
as §3, §2

Procedure for HL60-parent cells: The parent MDCKII and HL60 cells and their ABCB1-, ABCG2-, and ABCC1-overexpressing counterparts were seeded at the densities specified above onto 96-well culture plates and cultured for 24 h. The medium was subsequently replaced with serial dilutions of ensartinib alone or with various concentrations of a model MDR-susceptible cytostatic agent (daunorubicin or mitoxantrone) with or without 10 µM ensartinib. After 48 h incubation, the cells’ viability was determined as described above. In addition to performing IC50-shift analyses, the viability measurements were converted to FA (fraction of cells affected) values and the effects of drug combinations were quantified using the Chou-Talalay combination index (CI) method as implemented in CompuSyn 3.0.1 (ComboSyn Inc., Paramus, NJ, USA). The effects of concomitantly administered drugs were classified as synergistic (CI < 0.9), additive (0.9 < CI < 1.1), or antagonistic (CI > 1.1) based on the computed CI values [57].

For `COc1cccc2c1C(=O)c1c(O)c3c(c(O)c1C2=O)C[C@@](O)(C(C)=O)C[C@@H]3O[C@H]1C[C@H](N)[C@H](O)[C@H](C)O1` [daunorubicin], the IC50 in the data set on MDCKII-parent cells came to 0.947 µM; with MDCKII-ABCB1 cells, 11.9 µM; with HL60-parent cells it was 0.0531 µM; with HL60-ABCB1 cells, 2.39 µM.
`CC(=O)O[C@@]12CO[C@@H]1C[C@H](O)[C@@]1(C)C(=O)[C@H](O)C3=C(C)[C@@H](OC(=O)[C@H](O)[C@@H](NC(=O)OC(C)(C)C)c4ccccc4)C[C@@](O)([C@@H](OC(=O)c4ccccc4)[C@H]21)C3(C)C` [docetaxel]: in the data set on HepG2-CYP3A4 cells (Homo sapiens, 48 h, HepG2-CYP3A4 vs HepG2-EV, read-out: viability of CYP3A4-overexpressing cells greater than that of empty vector cells), the viability at 1 µM was determined as 24.4%.
Take `CC(=O)N1CCN(c2ccc(OCC3COC(Cn4ccnc4)(c4ccc(Cl)cc4Cl)O3)cc2)CC1` (centres unmarked) [ketoconazole]: the “sensitization effect of combination with docetaxel” value was “synergistic” in the data set on HepG2-CYP3A4 cells (HepG2-CYP3A4, <0% antagonism, =0% additivity, >0% synergism) and “antagonistic” with HepG2-EV cells.
`O=C1c2c(O)ccc(O)c2C(=O)c2c(NCCNCCO)ccc(NCCNCCO)c21` [mitoxantrone]: the IC50 in the data set on MDCKII-parent cells (MDCKII-parent, cytostatic alone or with 10 µM ensartinib, read-out: IC50) was found to be 1.59 µM; in the data set on MDCKII-ABCG2 cells it was 9.98 µM; in the data set on HL60-parent cells (HL60-parent, cytostatic alone or with 10 µM ensartinib, read-out: IC50) it was 0.0305 µM; in the data set with HL60-ABCG2 cells, 0.666 µM.
